Target: GTPase KRas (Homo sapiens, UniProt P01116, G12C)
Assay: Inhibition of human KRAS G12C mutant incubated for 2 hrs by scintillation counter based covalent competition assay

SMILES | IC50
C=CC(=O)N1CC2(CC(n3nc(-c4ccc5c(c4)CCN5C(=O)CN4CC[C@H](F)C4)c(-c4c(Cl)c(C)cc5[nH]ncc45)c3C)C2)C1 (stereo in doubt; 76a) | 0.015 µM
C=CC(=O)N1CC2(CC(n3nc(-c4ccc5c(c4)CCN5C(=O)CN4CC[C@H](F)C4)c(-c4c(Cl)c(C)cc5[nH]ncc45)c3C)C2)C1 (stereo in doubt; 76b) | 13.3 µM
